In patent EP4603105A1, “PHARMACEUTICAL COMPOSITION CONTAINING CYCLIC COMPOUND HAVING SELECTIVE KRAS INHIBITORY EFFECT AGAINST HRAS AND NRAS” (CHUGAI SEIYAKU KABUSHIKI KAISHA, priority 2022, dated 2024):
Where two headings read alike, the source gives them in different places.

Experiments:
[1] = biological target: GDP-bound KRAS wild-type protein (Homo sapiens, UniProt P01116); assay: Binding to KRAS by surface plasmon resonance (SPR), dissociation constant KD
Summary of the method: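 GDP-loaded biotinylated Avi-tag RAS proteins (E. coli-expressed) captured on a Biotin CAPture chip at ~100–300 RU; single-cycle kinetics at 30°C, 100 µL/min, 75 s injections of rising compound concentrations. HBS pH 7.4 running buffer with 1 mM DTT, 10 mM MgCl2, 10 µM GDP, 4% DMSO. KD from 1:1 binding fit.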

[2] = biological target: GDP-bound NRAS wild-type protein (Homo sapiens, UniProt P01111); assay: Binding to NRAS by surface plasmon resonance (SPR), KD and KD ratio to KRAS
Chain of GDP-bound NRAS wild-type protein (P01111 whole entry): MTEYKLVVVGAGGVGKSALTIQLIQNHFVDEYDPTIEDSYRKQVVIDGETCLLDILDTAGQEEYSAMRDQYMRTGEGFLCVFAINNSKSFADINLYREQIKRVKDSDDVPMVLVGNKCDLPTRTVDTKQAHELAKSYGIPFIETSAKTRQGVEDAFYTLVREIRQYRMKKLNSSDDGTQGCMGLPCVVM
Summary of the method: (§1)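 Biotinylated GDP-bound RAS was captured at about 100–300 RU. Running buffer: HBS pH 7.4, 10 mM MgCl2, 10 µM GDP, 1 mM DTT, 0.01% Tween 20, 4% DMSO.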

[3] = biological target: HRAS wild-type protein (Homo sapiens, UniProt P01112); assay: Binding to HRAS by surface plasmon resonance (SPR), KD and KD ratio to KRAS
Chain of HRAS wild-type protein (P01112 whole entry): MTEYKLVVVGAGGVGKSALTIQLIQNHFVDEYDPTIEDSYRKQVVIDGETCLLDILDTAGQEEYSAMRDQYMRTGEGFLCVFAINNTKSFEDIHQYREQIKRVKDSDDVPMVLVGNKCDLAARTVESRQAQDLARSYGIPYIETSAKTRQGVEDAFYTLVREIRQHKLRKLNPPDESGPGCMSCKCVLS
Summary of the method: as §1

[4] = test system: human lung cancer strain NCI-H441; assay: NCI-H441 cell proliferation inhibitory activity (CellTiter-Glo, 4 days); format: cell-based; settings: read-out: NCl-H441 IC50
Summary of the method: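 Step one: dispense the test compound in serial DMSO dilutions. Step three: add the reagent and measure […].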

[5] = Single Cycle Kinetics, 1:1 binding model
[6] = ratio of KD with respect to GDP-bound NRAS wild-type protein to KD with respect to KRAS
[7] = ratio of KD with respect to HRAS wild-type protein to KD with respect to KRAS
[8] = 50% proliferation inhibitory concentration, four days
[9] = ratio of KD for GDP-bound NRAS wild-type protein to KD for KRAS
[10] = ratio of KD for HRAS wild-type protein to KD for KRAS

Chain of GDP-bound KRAS wild-type protein (P01116 1-188 isoform P01116-2): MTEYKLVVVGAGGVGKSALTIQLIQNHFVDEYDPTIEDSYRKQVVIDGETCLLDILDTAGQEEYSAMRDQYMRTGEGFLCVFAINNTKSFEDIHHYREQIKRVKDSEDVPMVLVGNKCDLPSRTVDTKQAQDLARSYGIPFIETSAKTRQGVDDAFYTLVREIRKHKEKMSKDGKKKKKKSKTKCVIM

| Kd [1, 5] | IC50 [4, 8] | Kd ([1]; Single Cycle Kinetics) | IC50 ([4]; NCI-H441 cells, 4 days) | Kd ([1]; 1:1 binding model) | Compound | NRAS /KRAS [2, 6] | HRAS /KRAS [3, 7] | NRAS /KRAS [2, 9] | HRAS /KRAS [3, 10] |
| --- | --- | --- | --- | --- | --- | --- | --- | --- | --- |
| 0.068 nM | 3.2 nM |  |  |  | CCO[C@@H]1C[C@H]2C(=O)NC3(CCCC3)C(=O)N(C)[C@@H](C3CCCC3)C(=O)N(C)[C@H](C(=O)N3CCOCC3)CC(=O)N(C)[C@@H](CC)C(=O)N[C@@H]([C@@H](C)CC)C(=O)N(C)CC(=O)N(C)[C@H]3C[C@@H](C)[C@@H](C)CN(C3=O)[C@@H](Cc3ccc(C(F)(F)F)cc3)C(=O)N(C)CC(=O)N[C@@H](CCc3ccc(C(F)(F)F)c(Cl)c3)C(=O)N2C1 [PP1359] | A (a compound having 10 or more and less than 20 is denoted as A) | B (a compound having 3 or more and less than 10 is denoted as B) |  |  |
|  |  | 0.24 nM | 9.5 nM |  | CCO[C@@H]1C[C@H]2C(=O)OC3(CCC3)C(=O)N(C)[C@@H](C3CCCC3)C(=O)N(C)[C@H](C(=O)N(C)C)CC(=O)N(C)[C@@H]([C@H](C)OC)C(=O)N[C@@H]([C@@H](C)CC)C(=O)N(C)CC(=O)N(C)[C@H]3C/C=C\CCN(C3=O)[C@@H](Cc3ccc(C(F)(F)F)cc3)C(=O)N(C)CC(=O)N[C@@H](CCc3ccc(C(F)(F)F)c(OC)c3)C(=O)N2C1 [PP3379] |  |  | A (a compound having 10 or more and less than 20 is denoted as A) | B (a compound having 3 or more and less than 10 is denoted as B) |
|  |  | 0.43 nM | 13.9 nM |  | CCC[C@H]1C(=O)N[C@@H]([C@@H](C)CC)C(=O)N2CCCC[C@H]2C(=O)N(C)[C@H]2C/C=C\CCN(C2=O)[C@@H](Cc2ccc(C(F)(F)F)cc2)C(=O)N(C)CC(=O)N[C@@H](CCc2ccc(C(F)(F)F)c(OC)c2)C(=O)N2C[C@H](OCC)C[C@H]2C(=O)N(C)C2(CCC2)C(=O)N(C)[C@@H](C2CCCC2)C(=O)N(C)[C@H](C(=O)N(C)C)CC(=O)N1C [PP3270] |  |  | A (a compound having 10 or more and less than 20 is denoted as A) | B (a compound having 3 or more and less than 10 is denoted as B) |
|  |  | 0.17 nM | 14.1 nM |  | CCCN(C)C(=O)[C@@H]1CC(=O)N(C)[C@@H](CC(C)C)C(=O)N[C@@H]([C@@H](C)CC)C(=O)N(C)CC(=O)N(C)[C@H]2C/C=C\CCN(C2=O)[C@@H](Cc2ccc(C(F)(F)F)cc2)C(=O)N(C)CC(=O)N[C@@H](CCc2cc(F)c(C(F)(F)F)c(F)c2)C(=O)N2C[C@H](OCC)C[C@H]2C(=O)N[C@]2(C[C@H](OC)C2)C(=O)N(C)[C@@H](C2CCCC2)C(=O)N1C [PP3353] |  |  | A (a compound having 10 or more and less than 20 is denoted as A) | A (a compound having 10 or more and less than 20 is denoted as A) |
|  |  | 0.28 nM | 4.3 nM |  | CCO[C@@H]1C[C@H]2C(=O)OC3(CCC3)C(=O)N(C)[C@@H](C3CCCC3)C(=O)N(C)[C@H](C(=O)N(C)C)CC(=O)N(C)[C@@H]([C@H](C)OC)C(=O)N[C@@H]([C@@H](C)CC)C(=O)N(C)CC(=O)N(C)[C@H]3C/C=C\CCN(C3=O)[C@@H](Cc3ccc(C)cc3)C(=O)N(C)CC(=O)N[C@@H](CCc3ccc(C(F)(F)F)c(OC)c3)C(=O)N2C1 [PP3397] |  |  | A (a compound having 10 or more and less than 20 is denoted as A) | B (a compound having 3 or more and less than 10 is denoted as B) |
|  |  | 0.059 nM | 4.6 nM |  | CCC[C@H]1C(=O)N[C@@H]([C@@H](C)CC)C(=O)N(C)CC(=O)N(C)[C@H]2C/C=C\CCN(C2=O)[C@@H](Cc2ccc(C(F)(F)F)cc2)C(=O)N(C)CC(=O)N[C@@H](CCc2cc(F)c(C(F)(F)F)c(F)c2)C(=O)N2CC3(CC3)C[C@H]2C(=O)NC2(CCC2)C(=O)N(C)[C@@H](C2CCCC2)C(=O)N(C)[C@H](C(=O)N(C)C)CC(=O)N1C [PP3436] |  |  | A (a compound having 10 or more and less than 20 is denoted as A) | A (a compound having 10 or more and less than 20 is denoted as A) |
| 0.77 nM | 110 nM |  |  |  | CCO[C@@H]1C[C@H]2C(=O)NC3(CCC3)C(=O)N(C)[C@@H](C(CC)CC)C(=O)N(C)[C@H](C(=O)N(C)C)CC(=O)N(C)[C@@H](CC)C(=O)N[C@@H]([C@@H](C)CC)C(=O)N(C)CC(=O)N(C)[C@H]3C/C=C\CCN(C3=O)[C@@H](Cc3ccc(C(F)(F)F)cc3)C(=O)N(C)CC(=O)N[C@@H](CCc3cc(F)c(Cl)c(F)c3)C(=O)N2C1 [PP1230] | A (a compound having 10 or more and less than 20 is denoted as A) | A (a compound having 10 or more and less than 20 is denoted as A) |  |  |
|  |  |  | 4.5 nM | 0.062 nM | CCCOC[C@H]1C(=O)N[C@@H]([C@@H](C)CC)C(=O)N2CCC[C@H]2C(=O)N(C)[C@H]2C/C=C\CCN(C2=O)[C@@H](Cc2ccc(C)cc2)C(=O)N(C)CC(=O)N[C@@H](CCc2ccc(C(F)(F)F)c(OC)c2)C(=O)N2C[C@@H](C)C[C@H]2C(=O)N(C)C2(CCC2)C(=O)N(C)[C@@H](C2CCCC2)C(=O)N(C)[C@H](C(=O)N(C)C)CC(=O)N1C [PP2369] |  |  | A (a compound having 10 or more and less than 20 is denoted as A) | B (a compound having 3 or more and less than 10 is denoted as B) |
|  |  |  | 10.2 nM | 0.28 nM | CCC[C@H]1C(=O)N[C@@H]([C@@H](C)CC)C(=O)N(C2CC2)CC(=O)N(C)[C@H]2C/C=C\CCN(C2=O)[C@@H](Cc2ccc(C(F)(F)F)cc2)C(=O)N(C)CC(=O)N[C@@H](CCc2ccc(C(F)(F)F)c(OC)c2)C(=O)N2C[C@H](OCC)C[C@H]2C(=O)NC2(CC(C)(C)C2)C(=O)N(C)[C@@H](CC(C)(C)C)C(=O)N(C)[C@H](C(=O)N(C)C)CC(=O)N1C [PP2746] |  |  | A (a compound having 10 or more and less than 20 is denoted as A) | A (a compound having 10 or more and less than 20 is denoted as A) |
|  |  |  | 97.3 nM | 6.2 nM | CCC(CC)[C@H]1C(=O)N(C)[C@H](C(=O)N(C)C)CC(=O)N(C)[C@@H](C(C)C)C(=O)N[C@@H]([C@@H](C)CC)C(=O)N(C)CC(=O)N(C)[C@H]2C/C=C\CCN(C2=O)[C@@H](CC2CCC(F)(F)CC2)C(=O)N(C)CC(=O)N[C@@H](CCc2cc(F)c(C(F)(F)F)c(F)c2)C(=O)N2C[C@@H](C)C[C@H]2C(=O)NC2(CC(C)(C)C2)C(=O)N1C [PP2496] |  |  | A (a compound having 10 or more and less than 20 is denoted as A) | A (a compound having 10 or more and less than 20 is denoted as A) |
|  |  |  | 144 nM | 4.1 nM | CCC[C@H]1C(=O)N[C@@H](CC(C)C)C(=O)N(C2CC2)CC(=O)N(C)[C@H]2C/C=C\CCN(C2=O)[C@@H](Cc2ccc(C)cc2)C(=O)N(C)CC(=O)N[C@@H](CCc2cc(F)c(C(F)(F)F)c(F)c2)C(=O)N2C[C@H](OCC)C[C@H]2C(=O)NC2(CCC2)C(=O)N(C)[C@@H](C2CCCC2)C(=O)N(C)[C@H](C(=O)N(C)C)CC(=O)N1C [PP2532] |  |  | A (a compound having 10 or more and less than 20 is denoted as A) | B (a compound having 3 or more and less than 10 is denoted as B) |
|  |  | 0.079 nM | 1.4 nM |  | CCC[C@H]1C(=O)N[C@@H]([C@@H](C)CC)C(=O)N(C)CC(=O)N(C)[C@H]2C/C=C\CCN(C2=O)[C@@H](Cc2ccc(C)cc2)C(=O)N(C)CC(=O)N[C@@H](CCc2ccc(C(F)(F)F)c(OC)c2)C(=O)N2CC3(CC3)C[C@H]2C(=O)N(C)C2(CCC2)C(=O)N(C)[C@@H](CC(C)(C)C)C(=O)N(C)[C@H](C(=O)N(C)C)CC(=O)N1C [PP3296] |  |  | B (a compound having 3 or more and less than 10 is denoted as B) | C (A compound having a KD ratio of 0.1 or more and less than 3 is denoted as C) |
|  |  | 0.062 nM | 3.7 nM |  | CCC[C@H]1C(=O)N[C@@H]([C@@H](C)CC)C(=O)N(C)CC(=O)N(C)[C@H]2C/C(F)=C\CCN(C2=O)[C@@H](Cc2ccc(C)cc2)C(=O)N(C)CC(=O)N[C@@H](CCc2cc(F)c(C(F)(F)F)c(F)c2)C(=O)N2C[C@H](OCC)C[C@H]2C(=O)N(C)C2(CCC2)C(=O)N(C)[C@@H](C2CCCC2)C(=O)N(C)[C@H](C(=O)N(C)C)CC(=O)N1C [PP3528] |  |  | B (a compound having 3 or more and less than 10 is denoted as B) | B (a compound having 3 or more and less than 10 is denoted as B) |
|  |  | 0.35 nM | 26.2 nM |  | CCCOC[C@@H]1NC(=O)C[C@@H](C(=O)N(C)CCC)N(C)C(=O)[C@H](C2CCCC2)N(C)C(=O)C2(CC(C)(C)C2)NC(=O)[C@@H]2C[C@@H](OCC)CN2C(=O)[C@H](CCc2cc(F)c(C(F)(F)F)c(F)c2)NC(=O)CN(C)C(=O)[C@H](Cc2ccc(C(F)(F)F)cc2)N2CC/C=C\C[C@@H](C2=O)N(C)C(=O)CN(C)C(=O)[C@H]([C@@H](C)CC)NC1=O [PP3451] |  |  | A (a compound having 10 or more and less than 20 is denoted as A) | A (a compound having 10 or more and less than 20 is denoted as A) |
|  |  |  | 125 nM | 1.7 nM | CCC(CC)[C@H]1C(=O)N(C)[C@H](C(=O)N(C)C)CC(=O)N(C)[C@@H](CC2CC2)C(=O)N[C@@H]([C@@H](C)CC)C(=O)N(C)CC(=O)N(C)[C@H]2C/C=C\CCN(C2=O)[C@@H](CC2CCC(F)(F)CC2)C(=O)N(C)CC(=O)N[C@@H](CCc2cc(F)c(C(F)(F)F)c(F)c2)C(=O)N2C[C@@H](C)C[C@H]2C(=O)NC2(CC(C)(C)C2)C(=O)N1C [PP2500] |  |  | A (a compound having 10 or more and less than 20 is denoted as A) | A (a compound having 10 or more and less than 20 is denoted as A) |
